Reference: US20210393520A1, “TREATMENT OF GRAM-NEGATIVE FOLLICULITIS OR AN INFLAMMATION THEREOF WITH BESIFLOXACIN” (VYOME THERAPEUTICS LIMITED, priority 2018, published 2021)
In brackets after ≈: the same amount, converted by molar mass. Entries after “also recorded” stand apart in the source; their conditions may differ.

Assays:
[1] = tested on: A. baumannii CCARM 12001 (Quinolone resistant strain); test: MIC, micro broth dilution (CLSI), Table 1A; format: cell-based; conditions: Acinetobacter baumannii, CCARM12001
Protocol: (§1) MIC of besifloxacin and other antibiotics molecules were determined by micro broth dilution method as per the Clinical and Laboratory Standards Institute (CLSI) guideline. MIC assay is the determinant of the inherent anti-microbial potency of a particular molecule. For preparing inoculum, bacterial strains were cultured in Brain Heart Infusion Agar (BHIA) at 37° C. for 24 hours. […] For bacterial inoculum, bacterial culture turbidity was adjusted to 0.1 OD at 600 nm in UV-Visual spectrophotometer (approximately 1.5×10^8 cells/ml) and further diluted (100 times with sterile BHI broth). Diluted bacterial suspension (100 μl) was added to each well except sterility control wells (column 12 of 96 well plate). Column 11 of 96 well plate was used as growth control and vehicle control. The plates were incubated at 37° C. for 24 h. The MIC of the test compounds were determined by observing the lowest concentration of test compound that prevented the visual bacterial growth.

[2] = tested on: A. baumannii CCARM 12020 (multi-drug resistant, quinolone susceptible); test: MIC, micro broth dilution (CLSI), Table 1A; format: cell-based; conditions: Acinetobacter baumannii, CCARM12020
Protocol: as §1

[3] = tested on: A. haumannii ATCC 19606 (wild type); test: MIC, micro broth dilution (CLSI), Table 1A; format: cell-based; conditions: Acinetobacter baumannii, ATCC19606
Protocol: as §1

[4] = tested on: E. coli ATCC BAA 196 (multi-drug resistant strain); test: MIC, micro broth dilution (CLSI), Table 1A; format: cell-based; conditions: Escherichia coli, BAA196
Protocol: as §1

[5] = tested on: E. coli MTCC 1687 (wild type); test: MIC, micro broth dilution (CLSI), Table 1A; format: cell-based; conditions: Escherichia coli, MTCC1687
Protocol: as §1

[6] = tested on: K. pneumoniae ATCC 13883 (wild type); test: MIC, micro broth dilution (CLSI), Table 1A; format: cell-based; conditions: Klebsiella pneumoniae, ATCC13883
Protocol: as §1

[7] = tested on: P. aeruginosa ATCC 27853 (wild type); test: MIC, micro broth dilution (CLSI), Table 1A; format: cell-based; conditions: Pseudomonas aeruginosa, ATCC27853
Protocol: as §1

[8] = tested on: P. aeruginosa CCARM 2204 (multi-drug resistant, quinolone susceptible); test: MIC, micro broth dilution (CLSI), Table 1A; format: cell-based; conditions: Pseudomonas aeruginosa, CCARM2204
Protocol: as §1

[9] = tested on: E. aerogenes M2-1 (clinical isolate); test: MIC, micro broth dilution (CLSI), Table 1A; format: cell-based, Enterobacter aerogenes; conditions: Klebsiella aerogenes
Protocol: as §1

[10] = tested on: E. aerogenes NCIM 5139 (wild type); test: MIC, micro broth dilution (CLSI), Table 1A; format: cell-based, Enterobacter aerogenes; conditions: Klebsiella aerogenes, NCIM5139
Protocol: as §1

[11] = tested on: Acinetobacter sp. 488; test: MIC, micro broth dilution in Muller Hinton broth (CLSI), Table 1B; format: cell-based; conditions: read-out: Minimum Inhibitory Concentration
Protocol: (§2) Besifloxacin HCL was tested against ampicillin and cefotaxime (3rd generation cephalosporin) susceptible and resistant gram-negative bacterial strains involved in GNF (gram negative folliculitis) by broth dilution method as per the Clinical & Laboratory Standards Institutes (CLSI) guidelines. MIC assay was performed in 96 well plates by micro broth dilution method, in 96 well plates, all the wells were added with 100 μl of sterilized Muller Hinton broth No: 2 cation broth (HiMedia, India). The initial stock of test compounds (1 mg/ml) were prepared in dimethyl sulfoxide (DMSO) and further dilutions were made in culture broth to get the desirable concentration. Then 100 μl of broth containing test compounds were initially added to the first column's wells and then serial dilution was performed up to well of 10th column. Wells of 11th and 12th column served as a positive and negative control respectively. Finally, 100 μl of inoculum (0.5 McFarland equal bacterial suspension was 100 times diluted in culture broth) was added to all the wells. Plates were incubated at 37° C. for 18-24 hrs. After incubation, MIC of each test compound was determined by observing the lowest concentration of test compound that has no visual growth compared to growth control. Minimum inhibitory concentration of besifloxacin, ampicillin and cefotaxime against gram negative bacterial strains were shown in Table 1.

[12] = tested on: Enterobacter sp. 1; test: as above; format: cell-based; conditions: read-out: Minimum Inhibitory Concentration
Protocol: as §2

[13] = tested on: Enterobacter sp. 2; test: as above; format: cell-based; conditions: read-out: Minimum Inhibitory Concentration
Protocol: as §2

[14] = tested on: Enterobacter sp. 523; test: as above; format: cell-based; conditions: read-out: Minimum Inhibitory Concentration
Protocol: as §2

[15] = tested on: Enterobacter sp. 532; test: as above; format: cell-based; conditions: read-out: Minimum Inhibitory Concentration
Protocol: as §2

[16] = tested on: Escherichia coli 591; test: as above; format: cell-based; conditions: read-out: Minimum Inhibitory Concentration
Protocol: as §2

[17] = tested on: Escherichia coli 592; test: as above; format: cell-based; conditions: read-out: Minimum Inhibitory Concentration
Protocol: as §2

[18] = tested on: Klebsiella sp. 498; test: as above; format: cell-based; conditions: read-out: Minimum Inhibitory Concentration
Protocol: as §2

[19] = tested on: Klebsiella sp. 512; test: as above; format: cell-based; conditions: read-out: Minimum Inhibitory Concentration
Protocol: as §2

[20] = tested on: Pseudomonas sp. 537; test: as above; format: cell-based; conditions: read-out: Minimum Inhibitory Concentration
Protocol: as §2

[21] = tested on: Pseudomonas sp. 556; test: as above; format: cell-based; conditions: read-out: Minimum Inhibitory Concentration
Protocol: as §2

[22] = tested on: P. acnes V3-1; test: MIC against bacteria isolated from acne lesions, Table 2; format: cell-based, Propionibacterium acnes; conditions: Cutibacterium acnes, V31; P. acnes V3-1, isolated from acne lesions; read-out: Minimum Inhibitory Concentration
Protocol: as §1
(§3) Different skin resident bacteria were isolated from acne lesions of moderate to severe acne patients.

[23] = tested on: Bacillus megaterium M1-2.; test: as above; format: cell-based; conditions: Priestia megaterium, M12., read-out: Minimum Inhibitory Concentration
Protocol: as §1, §3

[24] = tested on: Dermatobacter hominis S11-2; test: as above; format: cell-based; conditions: S112; Dermatobacter hominis S11-2, isolated from acne lesions; read-out: Minimum Inhibitory Concentration
Protocol: as §1, §3

[25] = tested on: Enterobacter aerogenes M2-1; test: as above; format: cell-based; conditions: Klebsiella aerogenes, M21; Enterobacter aerogenes M2-1, isolated from acne lesions; read-out: Minimum Inhibitory Concentration
Protocol: as §1, §3

[26] = tested on: K. pneumoniae S6-1; test: as above; format: cell-based; conditions: Klebsiella pneumoniae, S61; K. pneumoniae S6-1, isolated from acne lesions; read-out: Minimum Inhibitory Concentration
Protocol: as §1, §3

[27] = tested on: Kocuria sp. S18-1; test: as above; format: cell-based; conditions: SP.S181; Kocuria sp. S18-1, isolated from acne lesions; read-out: Minimum Inhibitory Concentration
Protocol: as §1, §3

[28] = tested on: Microbacterium sp. S20-2; test: as above; format: cell-based; conditions: Microbacterium sp. S20-2, isolated from acne lesions
Protocol: as §1, §3

[29] = tested on: P. avidum S3-1; test: as above; format: cell-based; conditions: Cutibacterium avidum, S31; P. avidum S3-1, isolated from acne lesions; read-out: Minimum Inhibitory Concentration
Protocol: as §1, §3

[30] = tested on: S. epidermidis S1-1; test: as above; format: cell-based; conditions: Staphylococcus epidermidis, S11; S. epidermidis S1-1, isolated from acne lesions; read-out: Minimum Inhibitory Concentration
Protocol: as §1, §3

[31] = tested on: Staphylococcus haemolyticus M1-1; test: as above; format: cell-based; conditions: M11; Staphylococcus haemolyticus M1-1, isolated from acne lesions; read-out: Minimum Inhibitory Concentration
Protocol: as §1, §3

[32] = tested on: Blastococcus sp. S21A-2; format: cell-based; conditions: Blastococcus sp. S21A-2, isolated from acne lesions
Protocol: as §1, §3

[33] = tested on: microorganisms that cause gram-negative folliculitis; test: MIC, summary statements on gram-negative bacteria involved in GNF; format: cell-based; conditions: for Activity against gram-negative bacterial strains involved in GNF (in words): irrespective of response to other conventional antibiotics or quinolones, ampicillin/cefotaxime susceptible and resistant strains
Protocol: as §1, §2

[34] = Skin penetration/retention on human abdominal skin, Franz-type diffusion cells; format: in vitro ADME; conditions: human epidermal membranes, 12 hr, approximately 10 mg/cm^2 of approximately 1.0% formulation
Protocol: Besifloxacin gel and cream containing suspended besifloxacin were tested for skin retention study on human abdominal skin. Besifloxacin gel and cream were applied over a 12 hr application period. Heat-separated epidermal membranes from a single donor were mounted in horizontal Franz-type diffusion cells (exposed surface area 1.33 cm2) over a receptor solution of phosphate buffered saline, pH 7.4 containing 5% ethanol to facilitate solubilisation of any material penetrating the skin. Cells were maintained at 35° C. and receptor solution was stirred throughout. Formulations containing approximately 1.0% besifloxacin w/w and applied at a dose of approximately 10 mg/cm^2. The samples of the receptor solution were taken at times up to 12 hrs and extracts from surface swabs, stratum corneum tape strips and residual epidermis were obtained at the end of the experiment at 12 hrs. All samples were analysed by validated LCMS.
Besifloxacin gel containing suspended besifloxacin was tested for skin retention study on human abdominal skin. Testing procedure was similar to example 27.

[35] = tested on: skin resident bacteria isolated from acne lesions; test: MIC, summary statements on skin resident bacteria of acne patients; format: cell-based
Description: Moreover, as the MIC values are low and within a narrow range, the chance of future resistance generation due to sub optimal drug delivery in skin is also substantially lower.
Different skin resident bacteria were isolated from acne lesions of moderate to severe acne patients. As expected, P. acnes and S. epidermidis were two most prevalent species. Members of the skin microbiomes were of diverse nature. Most of the genus were gram positive, but few of them, like Klebsiella, were gram negative. Most of them were aerobic, but few, like P. acnes, were anaerobic in nature. […] Even if they are present in low numbers in microbiomes, they can act as reservoirs of resistance against antibiotic of choice which may in the log run affect the prognosis of GNF.

SMILES: N[C@@H]1CCCCN(c2c(F)cc3c(=O)c(C(=O)O)cn(C4CC4)c3c2Cl)C1 [Besifloxacin]
- MIC [1]: 2 µg/mL (≈ 5.08 µM)
- MIC [2]: 4 µg/mL (≈ 10.2 µM)
- MIC [3]: 1 µg/mL (≈ 2.54 µM)
- MIC [4]: 1 µg/mL (≈ 2.54 µM)
- MIC [5]: 0.125 µg/mL (≈ 0.317 µM)
- MIC [6]: 0.25 µg/mL (≈ 0.635 µM)
- MIC [7]: 0.5 µg/mL (≈ 1.27 µM)
- MIC [8]: 4 µg/mL (≈ 10.2 µM)
- MIC [9]: 0.125 µg/mL (≈ 0.317 µM)
- MIC [10]: 0.125 µg/mL (≈ 0.317 µM)
- MIC [11]: 2 µg/mL (≈ 5.08 µM)
- MIC [12]: 16 µg/mL (≈ 40.6 µM)
- MIC [13]: 1 µg/mL (≈ 2.54 µM)
- MIC [14]: 0.5 µg/mL (≈ 1.27 µM)
- MIC [15]: 16 µg/mL (≈ 40.6 µM)
- MIC [16]: 0.125 µg/mL (≈ 0.317 µM)
- MIC [17]: 0.5 µg/mL (≈ 1.27 µM)
- MIC [18]: 16 µg/mL (≈ 40.6 µM)
- MIC [19]: 0.25 µg/mL (≈ 0.635 µM)
- MIC [20]: 1 µg/mL (≈ 2.54 µM)
- MIC [21]: 1 µg/mL (≈ 2.54 µM)
- MIC [22]: 0.5 µg/mL (≈ 1.27 µM)
- MIC [23]: 0.02 µg/mL (≈ 0.0508 µM)
- MIC [24]: 1 µg/mL (≈ 2.54 µM)
- MIC [25]: 0.25 µg/mL (≈ 0.635 µM)
- MIC [26]: 1 µg/mL (≈ 2.54 µM)
- MIC [27]: 0.5 µg/mL (≈ 1.27 µM)
- Minimum Inhibitory Concentration [28]: 0.5 µg/mL
- MIC [29]: 0.5 µg/mL (≈ 1.27 µM)
- MIC [30]: 0.25 µg/mL (≈ 0.635 µM)
- MIC [31]: 0.13 µg/mL (≈ 0.33 µM)
- Minimum Inhibitory Concentration [32]: 0.06 µg/mL
- Activity against gram-negative bacterial strains involved in GNF (in words) [33]: very effective; also recorded: efficacious
- Activity against gram-negative bacterial strains involved in GNF (in words) ([33]; listed as besifloxacin): susceptible
- MIC ([33]; range over strains, read-out: MIC of besifloxacin against microorganisms that cause gram-negative folliculitis): 0.125 to 16 µg/mL
- MIC better (lower) compared with conventional antibiotics ([33]; vs cefotaxime, ampicillin, clindamycin, tetracycline and erythromycin): at least 50%
- besifloxacin recovered from receptor solution [34]: negligible amounts
- Activity against skin resident bacteria isolated from acne lesions (in words) ([35]; Table 2 isolates): potent antibacterial activity
- isolates demonstrating resistance to besifloxacin ([35]; micro broth dilution assay, acne patients or healthy individuals): none

SMILES: CC[C@H]1OC(=O)[C@H](C)[C@@H](O[C@H]2C[C@@](C)(OC)[C@@H](O)[C@H](C)O2)[C@H](C)[C@@H](O[C@@H]2O[C@H](C)C[C@H](N(C)C)[C@H]2O)[C@](C)(O)C[C@@H](C)C(=O)[C@H](C)[C@@H](O)[C@]1(C)O [Erythromycin]
- MIC [22]: > 150 µg/mL
- MIC [23]: 0.25 µg/mL (≈ 0.341 µM)
- MIC [24]: > 4 µg/mL
- MIC [25]: > 4 µg/mL
- MIC [26]: > 4 µg/mL
- MIC [27]: > 4 µg/mL
- Minimum Inhibitory Concentration [28]: 0.25 µg/mL
- MIC [29]: 0.06 µg/mL (≈ 0.0818 µM)
- MIC [30]: > 4 µg/mL
- MIC [31]: 0.25 µg/mL (≈ 0.341 µM)
- Minimum Inhibitory Concentration [32]: <0.01 µg/mL
